Test results published in US10730829B2, “Compound exhibiting anti-oxidative or anti-inflammatory activity” (University-Industry Cooperation Group of Kyung Hee …, priority 2016, dated 2020).

Test system: Raw 264.7 cells
Assay: Inhibition of LDH release from Ox-LDL-oxidised Raw 264.7 cells (WST absorbance)
Format: cell-based
Details: Ox-LDL 100 μg/mL, compared to the positive control group (LDH release rate 30%)
Procedure: To confirm the anti-oxidative effect of the compounds according to the present invention, the amount of lactate dehydrogenase (LDH), which is a material released from cells killed or damaged by oxidation, was measured by measuring the absorbance using water soluble tetrazolium salt (WST) to measure cytotoxicity. Specifically, Raw 264.7 cells, in which oxidation was induced with 100 μg/mL of oxidized low-density lipoprotein (Ox-LDL), were treated with test materials (2 kinds of comparative groups and 2 kinds of experimental groups) at 1 μM and 10 μM concentrations, respectively, and their ability to inhibit LDH release (i.e., a standard indicator of anti-oxidative effects) was confirmed. As reference, the LDH release rate in the negative control group in which no treatment was made was 7% and the LDH release rate in the positive control group treated with only Ox-LDL was 30%.

Row | Structure (SMILES) | decrease of LDH release rate (1 μM) | decrease of LDH release rate (10 μM)
1 | CC(=O)N[C@@H](CS)C(=O)O [NAC, N-acetyl-L-cysteine] | 6% | 13%
2 | CC(=O)NC(CSCCCSCC(N)C(=O)O)C(=O)O (centres unmarked) [Newcompound-1, 2-acetamido-3-(3-(2-amino-2-carboxyethylthio)propylthio)propanoic acid] | 12% | 21%
3 | C=CCSC[C@H](N)C(=O)O [SAC, S-allyl-L-cysteine] | 7% | 16%
4 | CC(=O)NC(CSCCCSCC(NC(C)=O)C(=O)O)C(=O)O (centres unmarked) [Newcompound-2, 2,14-dioxo-6,10-dithia-3,13-diazapentadecan-4,12-dicarboxylic acid] | 11% | 20%
